Measured values taken from patent publication US20130252930A1 (BIOMARIN PHARMACEUTICAL INC., priority 2010, published 2013).
pIC50: −log10 of the molar value. Like-named read-outs stand apart in the source and are kept apart here.

How the values were obtained:
[1] = molecular target: T1, CYP17 (human testicular microsome) (Homo sapiens, UniProt P05093); assay: CYP17 enzymatic assay (% inhibition at 1 nM) (Biological Example 12); type: biochemical
T1 construct: using microsomal fraction from human testis (Celsis Cat #S00110) as the enzyme source; tissue Celsis S00110; host or cells: human testis microsomal fraction
T1 sequence (P05093 1-508): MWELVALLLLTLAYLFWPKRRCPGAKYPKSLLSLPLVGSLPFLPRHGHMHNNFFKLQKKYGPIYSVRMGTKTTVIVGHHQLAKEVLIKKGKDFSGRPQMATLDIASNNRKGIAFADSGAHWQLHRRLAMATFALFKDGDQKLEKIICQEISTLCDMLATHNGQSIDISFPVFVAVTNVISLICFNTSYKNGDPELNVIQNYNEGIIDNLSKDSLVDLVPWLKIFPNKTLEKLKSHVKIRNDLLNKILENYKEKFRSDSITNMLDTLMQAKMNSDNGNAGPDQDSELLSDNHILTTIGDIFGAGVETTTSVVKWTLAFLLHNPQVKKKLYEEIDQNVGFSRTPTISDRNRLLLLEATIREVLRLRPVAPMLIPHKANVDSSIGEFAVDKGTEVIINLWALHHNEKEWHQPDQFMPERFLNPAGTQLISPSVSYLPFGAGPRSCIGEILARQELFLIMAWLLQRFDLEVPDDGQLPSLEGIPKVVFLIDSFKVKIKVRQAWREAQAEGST

CYP17 (H295R cells) = molecular target: T2, CYP17 (H295R cells) (Homo sapiens, UniProt P05093); assay: CYP17 cellular assay (IC50), testosterone in H295R cells (Biological Example 7); type: cell-based; details: H295R cells
T2 construct: endogenous in cells; host or cells: H295R cells
T2 sequence (P05093 1-508): T1 sequence (P05093 1-508)
Description: The assays were performed in 96-well plates. Typically H295R cells were seeded at 4.5×10^4 cells/well in 100 μL Growth Medium containing DMEM/F-12 (Gibco/Invitrogen; 11330-032), 2.5% Nu-Serum (BD Bioscience; 355100) and ITS (BD Bioscience; 354352), and cultured at 37° C., 5% CO2 for 24 hr. The next day, media were carefully removed and cells were washed twice with 200 μL 1×HBSS++. Test compounds were then added to the cells at 100, 10, 1, 0.1 nM final concentrations in 125 μL volume per well in serum-free media containing DMEM/F-12 and ITS+ Premix (BD Bioscience; 354352) with 0.1% methanol. Serum-free media with 0.1% methanol without test compound was used as control. Cells were incubated with compounds at 37° C. for additional 24 hours, and the cultured media from each compound treated well was harvested for measurement of testosterone concentration by ELISA according to manufacturer's instruction (Assay Design). Testosterone concentration of each sample was plotted vs. the concentration of the test compounds.

[2] = molecular target: T1, CYP17 (human testicular microsome); assay: CYP17 enzymatic assay (IC50) (Biological Example 4); type: biochemical
[3] = molecular target: T1, CYP17 (human testicular microsome); assay: CYP17 enzymatic assay (% inhibition at 10 nM), version 1 (Biological Example 5); type: biochemical
[4] = molecular target: T3, Cyp21 enzyme (Human HEK 293-Cyp21 stable transfected cells) (Homo sapiens, UniProt P08686); assay: CYP21-HEK293 enzymatic assay (IC50) (Biological Example 11); type: cell-based
T3 construct: expressed in transfected cells
T3 sequence (P08686 1-495): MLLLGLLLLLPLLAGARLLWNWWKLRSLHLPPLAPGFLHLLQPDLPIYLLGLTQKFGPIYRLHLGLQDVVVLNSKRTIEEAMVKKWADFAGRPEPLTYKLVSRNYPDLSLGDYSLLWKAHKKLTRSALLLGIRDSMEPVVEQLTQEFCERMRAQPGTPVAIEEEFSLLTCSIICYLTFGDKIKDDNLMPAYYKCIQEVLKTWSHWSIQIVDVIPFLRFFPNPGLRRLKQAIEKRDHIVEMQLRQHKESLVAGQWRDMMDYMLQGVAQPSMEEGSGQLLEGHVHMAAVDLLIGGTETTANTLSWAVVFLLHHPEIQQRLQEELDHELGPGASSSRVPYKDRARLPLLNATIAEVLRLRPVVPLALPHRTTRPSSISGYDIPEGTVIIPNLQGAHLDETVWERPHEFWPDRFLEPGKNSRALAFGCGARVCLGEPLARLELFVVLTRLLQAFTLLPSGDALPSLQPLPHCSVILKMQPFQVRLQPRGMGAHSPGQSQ

[5] = Human liver microsome stability assay (Biological Example 8b); details: liver microsomes, pH 7.4
Description: The reaction was started with addition of excess NADPH (5 mg/mL, 15 μL in 0.1 M potassium phosphate buffer, 1.0 mM EDTA, pH 7.4), the total volume is 45 μL (compound final concentration was 1 μM). […] 50 μL of the supernatant was transferred from each well into a 96-well sample plate containing 50 μL of ultra-pure water (Millipore) for LC-MS/MS analysis.

[6] = compound at 1 nM, read-out: CYP17 enzymatic assay % inhibition at 1 nM (Biological Example No. 12)
[7] = testosterone, read-out: CYP17 cellular assay IC50 (Biological Example No. 7)
[8] = human testicular microsome, DHEA by ELISA, read-out: Biological Example No. 4: CYP17 enzymatic assay IC50
[9] = 10 nM compound, DHEA by ELISA, read-out: Biological Example No. 5: CYP17 percent inhibition at 10 nM (version 1)
[10] = testosterone by ELISA, 24 hours, read-out: Biological Example No. 7: CYP17 cellular assay IC50
[11] = compound at 1 nM, read-out: Biological Example No. 12: CYP17 enzymatic assay % inhibition at 1 nM
[12] = testosterone, read-out: Biological Example No. 7: CYP17 cellular assay IC50
[13] = HEK 293-Cyp21 cells, read-out: CYP21-HEK293 enzymatic assay IC50 (Biological Example No. 11)
[14] = human testicular microsome, read-out: CYP17 enzymatic assay IC50 (Biological Example No. 4)
[15] = human testicular microsome, read-out: Biological Example No. 4: CYP17 enzymatic assay IC50
[16] = HEK 293-Cyp21 cells, read-out: Biological Example No. 11: CYP21-HEK293 enzymatic assay IC50

## CN(C)CC(=O)O[C@H]1CC[C@@]2(C)C(=CC[C@H]3C4=CC=C(c5cccnc5)[C@@]4(C)CC[C@@H]32)C1 [195′, (3S,10R,13S)-10,13-dimethyl-17-(pyridin-3-yl)-2,3,4,7,8,9,10,11,12,13-decahydro-1H-cyclopenta[a]phenanthren-3-yl 2-(dimethylamino)acetate]
[1]; [6]
  inhibition at 0.001 µM: > 50%
CYP17 (H295R cells); [7]
  pIC50: 7.00 to 7.82

## C[C@]12CCCC(=O)C1CC[C@@H]1[C@@H]2CC[C@]2(C)C(c3cccnc3)=CC[C@@H]12 (stereo partly drawn) [Compound 89, (10R,13S)-10,13-dimethyl-17-(pyridin-3-yl)-2,3,5,6,7,8,9,11,12,13,14,15-dodecahydro-1H-cyclopenta[a]phenanthren-4(10H)-one]
[2]; [8]
  pIC50: > 7.96
[3]; [9]
  inhibition at 0.01 µM: > 80%
CYP17 (H295R cells); [10]
  pIC50: > 7.82

## CC(=O)O[C@H]1CC[C@@]2(C)[C@@H](CC[C@@H]3[C@@H]2CC[C@]2(C)C(n4ccnn4)=CC[C@@H]32)C1 [Compound 130, (3S,5S,8R,9S,10S,13S,14S)-10,13-dimethyl-17-(1H-1,2,3-triazol-1-yl)-2,3,4,5,6,7,8,9,10,11,12,13,14,15-tetradecahydro-1H-cyclopenta[a]phenanthren-3-yl acetate]
[2]; [8]
  pIC50: > 7.96
[3]; [9]
  inhibition at 0.01 µM: > 80%
CYP17 (H295R cells); [10]
  pIC50: > 7.82

## C[C@]12CC[C@H]3[C@@H](CC=C4C[C@@H](O)CC[C@@]43C)C1=CC=C2c1cncc(C(F)F)c1 [Compound 272, (3S,10R,13S)-17-(5-(difluoromethyl)pyridin-3-yl)-10,13-dimethyl-2,3,4,7,8,9,10,11,12,13-decahydro-1H-cyclopenta[a]phenanthren-3-ol]
[1]; [11]
  inhibition at 0.001 µM: < 10%
CYP17 (H295R cells); [12]
  pIC50: 7.00 to 7.82

## C[C@]12CC[C@H]3[C@@H](C=CC4=CC(=O)CC[C@@]43C)C1=CC=C2c1cccnc1 [Compound 289, (10R,13S)-10,13-dimethyl-17-(pyridin-3-yl)-8,9,10,11,12,13-hexahydro-1H-cyclopenta[a]phenanthren-3(2H)-one]
[4]; [13]
  pIC50: 7.00 to 8.00
[1]; [6]
  inhibition at 0.001 µM: > 50%
[2]; [14]
  pIC50: > 7.96
[5]
  half-life at 1 μM: 1 to 50 min

## CC1C(O)CC[C@@]2(C)C1CC[C@@H]1[C@@H]2CC[C@]2(C)C(c3cccnc3)=CC[C@@H]12 (stereo partly drawn) [Compound 304, (10R,13S)-4,10,13-trimethyl-17-(pyridin-3-yl)-2,3,4,5,6,7,8,9,10,11,12,13,14,15-tetradecahydro-1H-cyclopenta[a]phenanthren-3-ol]
[1]; [11]
  inhibition at 0.001 µM: 10 to 50%
[2]; [15]
  pIC50: > 7.96
CYP17 (H295R cells); [12]
  pIC50: > 7.82

## C[C@]12CC[C@H]3[C@@H](CCC45CC4C(O)CC[C@]35C)[C@@H]1CC=C2c1cccnc1 (stereo partly drawn) [Compound 314, (4aR,6aS)-4a,6a-dimethyl-7-(pyridin-3-yl)-1a,2,3,4,4a,4b,5,6,6a,9,9a,9b,10,11-tetradecahydro-1H-cyclopenta[a]cyclopropa[j]phenanthren-2-ol]
[1]; [6]
  inhibition at 0.001 µM: > 50%
[2]; [14]
  pIC50: > 7.96
CYP17 (H295R cells); [7]
  pIC50: > 7.82

## CC1C[C@H]2C3=CC=C(c4cccnc4)[C@@]3(C)CC[C@@H]2[C@@]2(C)CCC(=O)C=C12 (stereo partly drawn) [Compound 315, (10R,13S)-6,10,13-trimethyl-17-(pyridin-3-yl)-6,7,8,9,10,11,12,13-octahydro-1H-cyclopenta[a]phenanthren-3(2H)-one]
[4]; [16]
  pIC50: > 8.00
[1]; [11]
  inhibition at 0.001 µM: > 50%
[2]
  pIC50: > 7.96
[5]
  half-life at 1 μM: 1 to 50 min

## C[C@]12CCC(=O)C=C1C(F)C[C@@H]1[C@@H]2CC[C@]2(C)C(c3cncc(F)c3)=CC[C@@H]12 (stereo partly drawn) [Compound 325, (10R,13S)-6-fluoro-17-(5-fluoropyridin-3-yl)-10,13-dimethyl-6,7,8,9,10,11,12,13,14,15-decahydro-1H-cyclopenta[a]phenanthren-3(2H)-one]
[4]; [16]
  pIC50: < 6.00
[1]; [11]
  inhibition at 0.001 µM: > 50%
[2]; [15]
  pIC50: > 7.96
[5]
  half-life at 1 μM: 1 to 50 min

## CC1C[C@H]2C3=CC=C(c4cccnc4)[C@@]3(C)CC[C@@H]2[C@@]2(C)C=CC(=O)C=C12 (stereo partly drawn) [Compound 349, (10R,13S)-6,10,13-trimethyl-17-(pyridin-3-yl)-6,7,8,9,10,11,12,13-octahydro-3H-cyclopenta[a]phenanthren-3-one]
[4]; HEK 293-Cyp21 stable transfected cells, read-out: CYP21-HEK293 enzymatic assay IC50 (Biological Example No. 11)
  pIC50: > 8.00
[1]; test compound at 1 nM, read-out: CYP17 enzymatic assay percent inhibition at 1 nM (Biological Example No. 12)
  inhibition at 0.001 µM: > 50%
[3]; test compound at 10 nM, read-out: CYP17 enzymatic assay percent inhibition at 10 nM (Biological Example No. 5)
  inhibition at 0.01 µM: > 80%
[5]
  half-life at 1 μM: 1 to 50 min

## C[C@]12CCNC(=O)C=C1C(F)CC1C2CC[C@]2(C)C(c3cccnc3)=CCC12 (stereo partly drawn) [Compound 370, (5aR,7aS)-12-fluoro-5a,7a-dimethyl-8-(pyridin-3-yl)-3,4,5,5a,5b,6,7,7a,10,10a,11,12-dodecahydrocyclopenta[5,6]naphtho[1,2-d]azepin-2(10bH)-one]
[4]; [16]
  pIC50: < 6.00
[1]; [11]
  inhibition at 0.001 µM: > 50%
[2]; [15]
  pIC50: > 7.96
[5]
  half-life at 1 μM: 1 to 50 min

## C[C@]12CCNC(=O)C=C1C1CC1[C@@H]1[C@@H]2CC[C@]2(C)C(c3cccnc3)=CC[C@@H]12 (stereo partly drawn) [Compound 382, (5aR,7aS)-5a,7a-dimethyl-8-(pyridin-3-yl)-3,4,5,5a,5b,6,7,7a,10,10a,10b,10c,11,11a-tetradecahydro-2H-cyclopenta[5,6]cyclopropa[3,4]naphtho[1,2-d]azepin-2-one]
[4]; [16]
  pIC50: < 7.00
[1]; [11]
  inhibition at 0.001 µM: > 50%
[2]; [15]
  pIC50: > 7.96
[5]
  half-life at 1 μM: 1 to 50 min

## C[C@]12CCC3C(CCC4=CC(=O)CC[C@@]43C)C1=CC=C2c1cncnc1 (stereo partly drawn) [Compound 471, (10R,13S)-10,13-dimethyl-17-(pyrimidin-5-yl)-6,7,8,9,10,11,12,13-octahydro-1H-cyclopenta[a]phenanthren-3(2H)-one]
[4]; [13]
  pIC50: 7.00 to 8.00
[1]; [6]
  inhibition at 0.001 µM: > 50%
[2]; [14]
  pIC50: > 7.96
[5]
  half-life at 1 μM: 1 to 50 min

## CCC1CC2C3=CC=C(c4cccnc4)[C@@]3(C)CCC2[C@@]2(C)CCC(=O)C=C12 (stereo partly drawn) [Compound 482, (10R,13S)-6-ethyl-10,13-dimethyl-17-(pyridin-3-yl)-6,7,8,9,10,11,12,13-octahydro-1H-cyclopenta[a]phenanthren-3(2H)-one]
[4]; [16]
  pIC50: 7.00 to 8.00
[1]; [11]
  inhibition at 0.001 µM: 10 to 50%
[2]
  pIC50: > 7.96
[5]
  half-life at 1 μM: 1 to 50 min
